Measurements taken from PubChem BioAssay (NCI).
Where “and” joins values, the source holds several entries; their conditions need not be identical. Equal values may be shown once.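 Cultured in 96-well plates, cells were exposed to test compound for 48 hours across five concentrations. Here, GI50 denotes the concentration required for 50% inhibition of growth. TGI denotes the concentration required for complete inhibition of growth.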

Assays:
Experiment in all cases: NCI tumour cell line growth inhibition, 48 h
A549 NSCLC = system: A549 NSCLC
HL-60(TB) leukemia = system: HL-60(TB) leukemia
IGROV1 ovarian = system: IGROV1 ovarian
MALME-3M melanoma = system: MALME-3M melanoma
NCI-H522 lung = system: NCI-H522 lung
SF-295 CNS = system: SF-295 CNS
U251 CNS = system: U251 CNS
HOP-62 NSCLC = system: HOP-62 NSCLC

| SMILES | TGI (A549 NSCLC) | TGI (HL-60(TB) leukemia) | TGI (IGROV1 ovarian) | TGI (MALME-3M melanoma) | TGI (NCI-H522 lung) | TGI (SF-295 CNS) | TGI (U251 CNS) | TGI (HOP-62 NSCLC) | GI50 (MALME-3M melanoma) | GI50 (NCI-H522 lung) | GI50 (SF-295 CNS) | GI50 (U251 CNS) |
| --- | --- | --- | --- | --- | --- | --- | --- | --- | --- | --- | --- | --- |
| COc1ccc(N[C@H](CS(=O)c2ccc(C)cc2)C(F)(F)F)cc1 (stereo not given in full) | > 100 µM | > 100 µM | > 100 µM | > 100 µM | > 100 µM | > 100 µM | > 100 µM |  |  |  |  |  |
| O=C(O)CN1CCN2CCCCCCCCN(CC1)CCN(CC(=O)O)CC2 | > 100 µM | 30.7 µM | > 100 µM | > 100 µM | > 100 µM | > 100 µM | > 100 µM | > 100 µM |  |  |  |  |
| Cc1cc(-c2nc3ccc(F)cc3s2)ccc1NC(=O)C(N)CCCCN (stereo not given) | 5.54 µM | 9.78 µM | 17.6 µM | 34.1 µM | 17.3 µM | 19.3 µM | 5.01 µM | 12.7 µM |  |  |  |  |
| NC1=Nc2ccccc2Sc2nccn21 | > 100 µM | 45 µM | > 100 µM | 34.6 µM | 44.3 µM | 43.7 µM | 96.2 µM | 57.4 µM |  |  |  |  |
| CC1(C)C(CBr)=[N+]([O-])C(C)(C)N1O | > 10 µM | > 6.81 µM | > 10 µM | 7.06 µM | 3.22 µM | > 10 µM | > 10 µM | > 10 µM |  |  |  |  |
| Cc1cc(OP2(=O)NCc3ccncc3O2)ccc1Cl (stereo not given) | > 100 µM |  | > 100 µM |  |  | > 100 µM | > 100 µM | > 100 µM |  |  |  |  |
| Cc1ccc(F)c2[nH]c(-c3ccccc3)cc(=O)c12 | > 53.5 µM | > 100 µM | > 100 µM | > 100 µM | 38.1 µM | 43.5 µM | > 100 µM | > 100 µM |  |  |  |  |
| CCOC(=O)c1ccc(NCc2ccc3nc(OC)c(OC)nc3c2)cc1 | > 100 µM | > 100 µM | > 100 µM | > 100 µM | > 100 µM | > 100 µM | > 100 µM | > 100 µM |  |  |  |  |
| O=S(=O)(O)c1ccc(N=Nc2ccc(N=Nc3c(O)ccc4ccc(S(=O)(=O)O)cc34)cc2)cc1 | > 100 µM | > 100 µM | > 100 µM | > 100 µM | > 100 µM | > 100 µM | > 100 µM | > 100 µM |  |  |  |  |
| Cc1cn(CC2(CO)CCC2)c(=O)[nH]c1=O | > 100 µM | > 100 µM | > 100 µM | > 100 µM | > 100 µM | > 100 µM | > 100 µM | > 100 µM |  |  |  |  |
| CCCC(=O)Nc1cc(/C=C/C(=O)N2CC(CCl)c3ccc([N+](=O)[O-])cc32)n(C)c1 (stereo not given) | > 100 µM |  | > 100 µM | > 100 µM | > 100 µM | > 100 µM | > 100 µM |  |  |  |  |  |
| COC(=O)c1ccc(Oc2nc3ccc(C(F)(F)F)cc3nc2-c2ccccc2)cc1 | > 100 µM | > 100 µM | > 100 µM | > 100 µM | > 100 µM | > 100 µM | > 100 µM | > 100 µM |  |  |  |  |
| COc1cc(/C=C2\N=C(c3ccccc3)N(c3nc4ccccc4s3)C2=O)cc(OC)c1OC | > 100 µM | > 100 µM | > 100 µM |  | 35.8 µM | > 100 µM | > 100 µM | > 100 µM |  |  |  |  |
| COC(Cc1cc(C(O)(c2ccc(C(C)(C)C)cc2)c2cc(CC(OC)(c3cc(C(OC)(c4ccc(C(C)(C)C)cc4)c4ccc(C(C)(C)C)cc4)c(C)cc3C)c3cc(C(OC)(c4ccc(C(C)(C)C)cc4)c4ccc(C(C)(C)C)cc4)c(C)cc3C)c(C)cc2C)c(C)cc1C)(c1cc(C(OC)(c2ccc(C(C)(C)C)cc2)c2ccc(C(C)(C)C)cc2)c(C)cc1C)c1cc(C(OC)(c2ccc(C(C)(C)C)cc2)c2ccc(C(C)(C)C)cc2)c(C)cc1C | > 75 µM | > 75 µM | > 75 µM | > 75 µM |  | > 75 µM | > 75 µM | > 75 µM |  |  |  |  |
| CCN(CC)CCOCCOCC1(c2ccc(Cl)c(Cl)c2)CCCCC1 | 23.1 µM | 21 µM | 23.8 µM | 13.3 µM | 22.1 µM | 15.1 µM | 21.5 µM | 22 µM |  |  |  |  |
| Cc1cc(C)n(CN(CCCCO)Cn2nc(C)cc2C)n1 | > 100 µM | 79 µM | 73.4 µM | 57.3 µM | 48.1 µM | > 100 µM | 49.9 µM | 47.6 µM |  |  |  |  |
| Cc1ccc2c(ccc3ncc(CNc4ccc(NS(C)(=O)=O)cc4)c32)[nH]1 | 66 µM | 65.3 µM | > 100 µM | 34.5 µM | 35.5 µM | 59.2 µM | 72.2 µM | 67.2 µM |  |  |  |  |
| CCOP(=O)(OCC)/C(=C\n1ccc(=O)[nH]c1=S)C(=O)OC | > 100 µM | > 100 µM | > 100 µM | > 100 µM | > 100 µM | > 100 µM | > 100 µM | > 100 µM |  |  |  |  |
| CCSC1=N/C(=C\c2ccco2)C(Nc2ccc(C)cc2)=N1 | > 100 µM |  | > 100 µM | > 100 µM | > 100 µM | > 100 µM | > 100 µM | > 100 µM |  |  |  |  |
| COc1ccc2c(c1)C(=O)c1c-2n(CCCN=[N+]=[N-])c(=O)c2cc([N+](=O)[O-])ccc12 | > 100 µM |  |  | 9.88 µM | 0.657 µM | 0.222 µM and 0.529 µM |  |  | 0.422 µM | < 0.001 µM | 0.033 µM | 0.16 µM |
| CCOc1cc2c(cc1O)C=C[C@@H]1[C@@H]2CC[C@]2(C)[C@@H](O)CC[C@@H]12 | > 100 µM | 7.58 µM | > 75.1 µM | 35.6 µM | 7.3 µM | 5.45 µM | > 38.3 µM | 49.3 µM |  |  |  |  |
| Cc1ccc(N2C=Nn3c(nc4sc5c(c4c3=O)CCCC5)C2)cc1 | > 100 µM |  | > 100 µM | > 100 µM | > 100 µM | > 100 µM | > 100 µM | 69.2 µM |  |  |  |  |
| COc1ccccc1N1C(=O)CSC1c1cccc(Oc2ccccc2)c1 (stereo not given) | 47.4 µM | 72.6 µM |  | 30.6 µM | 34.7 µM | 41.1 µM | 30.7 µM | 45.7 µM |  |  |  |  |
| CC(=O)OC(OC(C)=O)c1c2ccccc2cc2ccccc12 | 65.9 µM | > 100 µM | 55.9 µM |  |  | 45.3 µM | > 100 µM |  |  |  |  |  |
| N#CC1(C#N)C(=O)c2ccncc2C1=O | > 100 µM | > 100 µM | > 100 µM | > 100 µM | > 100 µM | > 100 µM | > 100 µM |  |  |  |  |  |
